This is an account of results in PMC9860869, “First Phytochemical Profiling and In-Vitro Antiprotozoal Activity of Essential Oil and Extract of Plagiochila porelloides” (Molecules, 2023).

Series [1] can be described thus: Cytotoxicity assay on WI38 cells. Format: cell-based. Conditions: human, WI-38 normal fibroblast cells, pure compound (positive control), read-out: Cytotoxicity IC50 ± SD WI38. The method, then:
(§1) Trypanosoma brucei brucei (strain 427) bloodstream forms were cultured in vitro in HMI9 medium containing 10% heat-inactivated fetal bovine serum. Leishmania mexicana mexicana promastigotes (MHOM/BZ/84/BEL46) were cultivated in vitro in a semi-defined medium (SDM-79) supplemented with 15% heat-inactivated fetal bovine serum. The human normal fibroblast cell line, WI-38, was cultivated in vitro in DMEM medium containing 4 mM L-glutamine, 1 mM sodium pyruvate supplemented with 10% heat-inactivated fetal bovine serum and penicillin–streptomycin (100 UI/mL to 100 µg/mL). All cells were incubated in a humidified atmosphere with 5% CO2 at 37 °C except the Leishmania promastigotes which were incubated at 28 °C.
(§2) The cytotoxicity of the essential oil and extracts on WI-38 and J774 cells was evaluated as previously described from the same stock solutions [45].

Series [2] in a line: Cytotoxicity assay on J774 cells. Format: cell-based, murine. Conditions: mouse, J774 macrophage-like cells, pure compound (positive control), read-out: Cytotoxicity IC50 ± SD J774. The method, then:
as §2

For series [3], the system named is Leishmania mexicana mexicana promastigotes. Nature of the series: In vitro test for antileishmanial activity. Format: cell-based. The note with it: Lmm promastigotes, pure compound (positive control), read-out: Antiprotozoal assay IC50 ± SD Lmm. The method, then:
as §1
(§3) The in vitro test was performed as described previously. Pentamidine isethionate salt (a commercial antileishmanial drug) and suramine sodium salt (a commercial antitrypanosomal drug) were used as positive controls in all experiments with an initial concentration of 10 µg/mL. First, stock solutions of crude extracts and compounds were prepared in DMSO at 20 mg/mL (and 2 mg/mL for positive controls). The solutions were further diluted in medium to give 0.2 mg/mL stock solutions. Essential oil and extracts were tested in eight serial three-fold dilutions (final concentration range: 100–0.05 µg/mL) in 96-well microtiter plates. All tests were repeated three times in duplicate.

For series [4], the system named is Trypanosoma brucei brucei (bloodstream forms). Kind of series: In vitro test for antitrypanosomal activity. The note with it: Tbb bloodstream forms, pure compound (positive control), read-out: Antiprotozoal assay IC50 ± SD Tbb. It counts as cell-based. The method, then:
as §1, §3

Regarding `CC[C@@]1(O)C(=O)OCc2c1cc1n(c2=O)Cc2cc3ccccc3nc2-1` [Camptothecin], the IC50 (as a rule, the midpoint of a concentration-inhibition curve) turned out to be 31 ± 2 nM in series [1] and 10 ± 1 nM in series [2].

On to `N=C(N)c1ccc(OCCCCCOc2ccc(C(=N)N)cc2)cc1` [Pentamidine], for which the half-inhibitory concentration (IC50) in series [3] was 70 ± 4 nM.

As for `Cc1ccc(C(=O)Nc2ccc(S(=O)(=O)O)c3cc(S(=O)(=O)O)cc(S(=O)(=O)O)c23)cc1NC(=O)c1cccc(NC(=O)Nc2cccc(C(=O)Nc3cc(C(=O)Nc4ccc(S(=O)(=O)O)c5cc(S(=O)(=O)O)cc(S(=O)(=O)O)c45)ccc3C)c2)c1` [Suramine], in series [4], the concentration for half-maximal inhibition (IC50) stood at 30 ± 4 nM.
